In patent publication US20220135526A1, “QUATERNARY AMMONIUM SALT COMPOUND, PREPARATION METHOD THEREFOR AND USE THEREOF” (WEST CHINA HOSPITAL, SICHUAN UNIVERSITY, priority 2019, published 2022):

Key:
rat's sciatic nerve = experiment: Local anesthetic effect after injection near the rat sciatic nerve (von Frey stimulation; Postural Extensor Thrust for motor function); assay type: in vivo; conditions: SD rats, 0.5 mL near sciatic nerve, compounds 20 mmol/mL; for Duration of motor block: Postural Extensor Thrust; for Duration of motor block / Duration of sensory block: levobupivacaine 0.75%, lidocaine 2%; for Local anesthesia onset time: levobupivacaine 0.75% (22 mmol/L), lidocaine 2% (74 mmol/L); for Duration of sensory block: von Frey
Procedure: Dosage: for lidocaine group, lidocaine was formulated with distilled water into a solution at the concentration of 2% (74 mmol/L); for levobupivacaine group, levobupivacaine was formulated with distilled water into a solution at the concentration of 0.75% (22 mmol/L); the compound of the present invention was formulated with distilled water into a solution at the concentration of […].
The injection volume for each rat was 0.5 mL, which was guided by a nerve locator and injected near the rat's sciatic nerve. Using von Frey stimulator, the rats were stimulated the soles of the feet in the injected side, to observe the effect of local anesthesia. Meanwhile, Postural Extensor Thrust (PET) was used to evaluate the motor function of the rat: the rat was lifted vertically and the hindlimb in the injected side pedaled on the platform of the electronic balance. […] When the limb was completely paralyzed, the reading was the limb's own weight, about 20 g. If the measured value was more than half of the difference between the baseline and the limb weight, the motor function was regarded as recovery, and if the value was […], the motor function was regarded as loss.

back skin of SD rat = experiment: Local anesthetic effect by subcutaneous infiltration (back skin, Von Frey fiber 100 g); assay type: in vivo; conditions: SD rats, 0.5 mL subcutaneous in saline; compounds 6 mmol/L, controls 0.75% (22 mmol/L) and 2% (74 mmol/L)
Procedure: After the back of SD rat weighing 250-300 g (half female and half male) was shaved and disinfected, a circle with a diameter of about 1.5 cm was drawn on the side of the exposed back, and the circle is divided into 6 equal parts. […] Among the Von Frey fiber yarns, the one with a strength of 100 g was bound to the needle for local skin stimulation. One minute After the drug was injected, the above method was used to stimulate in 6 divisions. […] If back skin contraction was observed, the local anesthetic effect was considered as loss. […] Each compound was tested with 10 rats.

| SMILES | Duration of motor block (rat's sciatic nerve) | Local anesthesia onset time (rat's sciatic nerve) | Duration of sensory block (rat's sciatic nerve) | Duration of local anesthesia (median) (back skin of SD rat) | Local anesthesia onset time (median) (back skin of SD rat) |
| --- | --- | --- | --- | --- | --- |
| Cc1cccc(C)c1NC(=O)C[N+](CCCCO)(CCCCO)CCCCCCCCN1CCCCCCC1C(=O)Nc1c(C)cccc1C (stereo not shown) [Example 44 product] | 16 h | 5 min | 69 h | 51 h | 2 min |
| Cc1cccc(C)c1NC(=O)C[N+](CCCCCCCS)(CCCCCCCN1CCCCC1C(=O)Nc1c(C)cccc1C)CCCCCC(=O)O (stereo not shown) [Example 45 product] | 20 h | 3 min | 58 h | 89 h | 1 min |
| Cc1cccc(C)c1NC(=O)C[N+]1(CCCCN2CCCCC2C(=O)Nc2c(C)cccc2C)CCOC(C)C1 (stereo not shown) [Example 48 product] | 15 h | 5 min | 57 h | 73 h | 2 min |
| Cc1cccc(C)c1NC(=O)C[N+]1(CCCCN2CCCCC2C(=O)Nc2c(C)cccc2C)CCOCC1C (stereo not shown) [Example 49 product] | 20 h | 4 min | 45 h | 62 h | 1 min |
| Cc1cccc(C)c1NC(=O)C[N+]1(CCCCN2CCCCC2C(=O)Nc2c(C)cccc2C)CC(C)OC(C)C1 (stereo not shown) [Example 50 product] | 13 h | 5 min | 56 h | 56 h | 2 min |
| Cc1cccc(C)c1NC(=O)C[N+]1(CCCCN2CCCCC2C(=O)Nc2c(C)cccc2C)C(C)COCC1C (stereo not shown) [Example 51 product] | 19 h | 5 min | 44 h | 89 h | 1 min |
| Cc1cccc(C)c1NC(=O)C[N+]1(CCCCCCN2CCCCC2C(=O)Nc2c(C)cccc2C)CCOCC1 (stereo not shown) [Example 52 product] | 15 h | 2 min | 56 h | 85 h | 3 min |
| Cc1cccc(C)c1NC(=O)C[N+]1(CCCCCCN2CCCCC2C(=O)Nc2c(C)cccc2C)CCOC(C)C1 (stereo not shown) [Example 54 product] | 15 h | 5 min | 66 h | 69 h | 2 min |
| CCCCC[N+](CCCS)(CCCCCCCCN1CCCCCCC1C(=O)Nc1c(C)cccc1C)CC(=O)Nc1c(C)cccc1C (stereo not shown) [Example 57 product] | 13 h | 5 min | 69 h | 85 h | 1 min |
| Cc1cccc(C)c1NC(=O)C[N+]1(CCCSCCCN2CCCCC2C(=O)Nc2c(C)cccc2C)CC(C)OC(C)C1 (stereo not shown) [Example 58 product] | 16 h | 3 min | 57 h | 71 h | 2 min |
| CCCCC[N+](CCO)(CCCCCCN1CCCC1C(=O)Nc1c(C)cccc1C)CC(=O)Nc1c(C)cccc1C (stereo not shown) [Example 59 product] | 15 h | 1 min | 54 h | 72 h | 1 min |
| Cc1cccc(C)c1NC(=O)C[N+](CCO)(CCCCO)CCCCCCN1CCCC1C(=O)Nc1c(C)cccc1C (stereo not shown) [Example 60 product] | 20 h | 1 min | 54 h | 66 h | 2 min |
| CCOCC[N+](CCO)(CCCCCCN1CCCC1C(=O)Nc1c(C)cccc1C)CC(=O)Nc1c(C)cccc1C (stereo not shown) [Example 61 product] | 11 h | 3 min |  | 86 h | 1 min |
| CCSCC[N+](CCO)(CCCCCCN1CCCC1C(=O)Nc1c(C)cccc1C)CC(=O)Nc1c(C)cccc1C (stereo not shown) [Example 62 product] | 21 h | 5 min | 51 h | 88 h | 1 min |
| CCCCC[N+](CCCCCCN1CCC1C(=O)Nc1c(C)cccc1C)(CCSCC)CC(=O)Nc1c(C)cccc1C (stereo not shown) [Example 63 product] | 14 h | 3 min | 64 h | 79 h | 1 min |
| CCCCC[N+](CCCCO)(CCCCCCN1CCC1C(=O)Nc1c(C)cccc1C)CC(=O)Nc1c(C)cccc1C (stereo not shown) [Example 64 product] | 13 h | 3 min | 67 h | 69 h | 1 min |
| CCCCC[N+](CCCCC)(CCCCCCN1CCC1C(=O)Nc1c(C)cccc1C)CC(=O)Nc1c(C)cccc1C (stereo not shown) [Example 65 product] | 19 h | 5 min | 59 h | 68 h | 1 min |
| Cc1cccc(C)c1NC(=O)C[N+](CCCCO)(CCCCO)CCCCCCN1CCC1C(=O)Nc1c(C)cccc1C (stereo not shown) [Example 66 product] | 10 h | 1 min | 60 h | 87 h | 1 min |
| CCOCC[N+](CCCCCCN1CCC1C(=O)Nc1c(C)cccc1C)(CCOCC)CC(=O)Nc1c(C)cccc1C (stereo not shown) [Example 67 product] | 14 h | 1 min | 67 h | 58 h | 1 min |
| CCCCC[N+](CCCCC)(CCCCCCCN1CCCCCC1C(=O)Nc1c(C)cccc1C)CC(=O)Nc1c(C)cccc1C (stereo not shown) [Example 68 product] | 21 h | 1 min | 79 h | 73 h | 3 min |
| CCCCC[N+](CCCCS)(CCCCCCCN1CCCCCC1C(=O)Nc1c(C)cccc1C)CC(=O)Nc1c(C)cccc1C (stereo not shown) [Example 69 product] | 10 h | 1 min | 62 h | 80 h | 1 min |
| CCCCC[N+](CCCCCCCN1CCCCCC1C(=O)Nc1c(C)cccc1C)(CCOCC)CC(=O)Nc1c(C)cccc1C (stereo not shown) [Example 70 product] | 17 h | 2 min | 53 h | 75 h | 4 min |
